{"source": "ChEMBL document CHEMBL4706515", "about": "“Discovery of new [1,2,4] Triazolo[1,5-a]Pyrimidine derivatives that Kill gastric cancer cells via the mitochondria pathway” (Eur J Med Chem, 2020)", "key": {"MGC-803 [1]": {"tested_on": "MGC-803", "test": "Antiproliferative activity against human MGC-803 cells assessed as inhibition of cell growth at 10 uM measured after 72 hrs by SRB assay relative to control", "format": "functional"}, "EJ": {"tested_on": "EJ", "test": "Antiproliferative activity against human EJ cells assessed as inhibition of cell growth at measured after 72 hrs by SRB assay", "format": "functional"}, "MGC-803 [2]": {"tested_on": "MGC-803", "test": "Induction of apoptosis in human MGC-803 cells assessed as viable cells at 5 uM measure after 24 hrs by Annexin-PI staining based Flowcytometry method (reference value: 80%)", "format": "functional", "conditions": "read-out: Activity"}, "MGC-803 [3]": {"tested_on": "MGC-803", "test": "Induction of apoptosis in human MGC-803 cells assessed as viable cells at 10 uM measure after 24 hrs by Annexin-PI staining based Flowcytometry method (reference value: 80%)", "format": "functional", "conditions": "read-out: Activity"}, "MGC-803 [4]": {"tested_on": "MGC-803", "test": "Induction of apoptosis in human MGC-803 cells assessed as increase in accumulation of LC3B-2 preincubated with Chloroquine measured after 24 hrs by western blot assay", "format": "functional, cell-based"}, "SGC-7901 [5]": {"tested_on": "SGC-7901", "test": "Induction of apoptosis in human SGC-7901 cells assessed as early apoptotic cells at 2.5 uM measure after 24 hrs by Annexin-PI staining based Flowcytometry method (reference value: 2.68%)", "format": "functional"}, "SGC-7901 [6]": {"tested_on": "SGC-7901", "test": "Induction of apoptosis in human SGC-7901 cells assessed as necrotic cells at 0.625 uM measure after 24 hrs by Annexin-PI staining based Flowcytometry method (reference value: 1.16%)", "format": "functional"}, "MGC-803 [7]": {"tested_on": "MGC-803", "test": "Antiproliferative activity against human MGC-803 cells assessed as inhibition of cell growth incubated with compound for 1 to 24 hrs and measured 72 hrs after replacement of media by SRB assay", "format": "functional, cell-based", "conditions": "time 1-24 hrs"}, "MGC-803 [8]": {"tested_on": "MGC-803", "test": "Induction of apoptosis in human MGC-803 cells assessed as necrotic cells at 2.5 uM measure after 24 hrs by Annexin-PI staining based Flowcytometry method (reference value: 3.13%)", "format": "functional"}, "MGC-803 [9]": {"tested_on": "MGC-803", "test": "Induction of apoptosis in human MGC-803 cells assessed as decrease in accumulation of cleaved PARP preincubated with Chloroquine measured after 24 hrs by western blot assay", "format": "functional, cell-based"}, "MGC-803 [10]": {"tested_on": "MGC-803", "test": "Induction of morphological changes in human MGC-803 cells assessed as cell shrinkage at 5 uM incubated for 1 hrs by bright field microscopic analysis", "format": "functional, cell-based"}, "MGC-803 [11]": {"tested_on": "MGC-803", "test": "Induction of apoptosis in human MGC-803 cells assessed as viable cells at 1.25 uM measure after 24 hrs by Annexin-PI staining based Flowcytometry method (reference value: 80%)", "format": "functional", "conditions": "read-out: Activity"}, "HGC-27": {"tested_on": "HGC-27", "test": "Antiproliferative activity against human HGC-27 cells assessed as inhibition of cell growth at measured after 72 hrs by SRB assay", "format": "functional"}, "MGC-803 [12]": {"tested_on": "MGC-803", "test": "Antiproliferative activity in human MGC-803 cells assessed as inhibition of cell viability preincubated for 1 hr with NAC followed by compound addition at 5 uM measured after 72 hrs by SRB staining method", "format": "functional, cell-based"}, "MGC-803 [13]": {"tested_on": "MGC-803", "test": "Induction of apoptosis in human MGC-803 cells assessed as late apoptotic cells at 2.5 uM measure after 24 hrs by Annexin-PI staining based Flowcytometry method (reference value: 7.06%)", "format": "functional"}, "SGC-7901 [14]": {"tested_on": "SGC-7901", "test": "Induction of apoptosis in human SGC-7901 cells assessed as viable cells at 10 uM measure after 24 hrs by Annexin-PI staining based Flowcytometry method (reference value: 94.9%)", "format": "functional", "conditions": "read-out: Activity"}, "MGC-803 [15]": {"tested_on": "MGC-803", "test": "Antiproliferative activity in human MGC-803 cells assessed as cell viability preincubated with chloroquine followed by compound addition measured after 24 hrs by SRB staining method", "format": "functional, cell-based"}, "BGC-823": {"tested_on": "BGC-823", "test": "Antiproliferative activity against human BGC-823 cells assessed as inhibition of cell growth at measured after 72 hrs by SRB assay", "format": "functional"}, "MGC-803 [16]": {"tested_on": "MGC-803", "test": "Induction of apoptosis in human MGC-803 cells assessed as late apoptotic cells at 5 uM measure after 24 hrs by Annexin-PI staining based Flowcytometry method (reference value: 7.06%)", "format": "functional"}, "SGC-7901 [17]": {"tested_on": "SGC-7901", "test": "Induction of apoptosis in human SGC-7901 cells assessed as early apoptotic cells at 0.625 uM measure after 24 hrs by Annexin-PI staining based Flowcytometry method (reference value: 2.68%)", "format": "functional"}, "MGC-803 [18]": {"tested_on": "MGC-803", "test": "Inhibition of cell proliferation in human MGC-803 cells at 10 uM measured by SRB assay", "format": "functional, cell-based", "conditions": "time 72.0 hrs"}, "GES1": {"tested_on": "GES1", "test": "Cytotoxicity against human GES1 cells assessed as inhibition of cell growth at measured after 72 hrs by SRB assay", "format": "cell-based", "conditions": "ges1, 72 h"}, "SGC-7901 [19]": {"tested_on": "SGC-7901", "test": "Inhibition of cell proliferation in human SGC-7901 cells at 2.5 uM measured after 72 hrs by SRB assay", "format": "functional, cell-based"}, "SGC-7901 [20]": {"tested_on": "SGC-7901", "test": "Induction of apoptosis in human SGC-7901 cells assessed as early apoptotic cells at 5 uM measure after 24 hrs by Annexin-PI staining based Flowcytometry method (reference value: 2.68%)", "format": "functional"}, "MGC-803 [21]": {"tested_on": "MGC-803", "test": "Induction of apoptosis in human MGC-803 cells assessed as late apoptotic cells at 10 uM measure after 24 hrs by Annexin-PI staining based Flowcytometry method (reference value: 7.06%)", "format": "functional"}, "SGC-7901 [22]": {"tested_on": "SGC-7901", "test": "Induction of apoptosis in human SGC-7901 cells assessed as necrotic cells at 1.25 uM measure after 24 hrs by Annexin-PI staining based Flowcytometry method (reference value: 1.16%)", "format": "functional"}, "MGC-803 [23]": {"tested_on": "MGC-803", "test": "Induction of mitochondrial membrane potential loss in human MGC-803 cells at 2.5 uM measured after 24 hrs by fluorescence method", "conditions": "Mitochondria"}, "MGC-803 [24]": {"tested_on": "MGC-803", "test": "Induction of apoptosis in human MGC-803 cells assessed as late apoptotic cells at 0.625 uM measure after 24 hrs by Annexin-PI staining based Flowcytometry method (reference value: 7.06%)", "format": "functional"}, "MGC-803 [25]": {"tested_on": "MGC-803", "test": "Inhibition of cell proliferation in human MGC-803 cells at 2.5 uM measured after 72 hrs by SRB assay", "format": "functional, cell-based"}, "SGC-7901 [26]": {"tested_on": "SGC-7901", "test": "Induction of apoptosis in human SGC-7901 cells assessed as late apoptotic cells at 1.25 uM measure after 24 hrs by Annexin-PI staining based Flowcytometry method (reference value: 1.29%)", "format": "functional"}, "MGC-803 [27]": {"tested_on": "MGC-803", "test": "Induction of apoptosis in human MGC-803 cells assessed as early apoptotic cells at 1.25 uM measure after 24 hrs by Annexin-PI staining based Flowcytometry method (reference value: 9.8%)", "format": "functional"}, "MGC-803 [28]": {"tested_on": "MGC-803", "test": "Induction of apoptosis in human MGC-803 cells assessed as early apoptotic cells at 2.5 uM measure after 24 hrs by Annexin-PI staining based Flowcytometry method (reference value: 9.8%)", "format": "functional"}, "MGC-803 [29]": {"tested_on": "MGC-803", "test": "Induction of mitochondrial membrane potential loss in human MGC-803 cells at 1.25 uM measured after 24 hrs by JC-1 staining based flow cytometry method (reference value: 0.344%)", "conditions": "Mitochondria"}, "MGC-803 [30]": {"tested_on": "MGC-803", "test": "Induction of apoptosis in human MGC-803 cells assessed as accumulation of cleaved caspase 9 protein at 0.625 to 10 uM measured after 24 hrs by western blot assay", "format": "functional, cell-based", "conditions": "dose 0.625-10 µM"}, "MGC-803 [31]": {"tested_on": "MGC-803", "test": "Induction of apoptosis in human MGC-803 assessed by cleaved PARP levels incubated for 1 hr with Z-LEHD-FMK followed by compound addition measured by western blot assay", "format": "functional, cell-based"}, "MGC-803 [32]": {"tested_on": "MGC-803", "test": "Induction of apoptosis in human MGC-803 cells assessed as necrotic cells at 1.25 uM measure after 24 hrs by Annexin-PI staining based Flowcytometry method (reference value: 3.13%)", "format": "functional"}, "MGC-803 [33]": {"tested_on": "MGC-803", "test": "Induction of apoptosis in human MGC-803 cells assessed as viable cells at 2.5 uM measure after 24 hrs by Annexin-PI staining based Flowcytometry method (reference value: 80%)", "format": "functional", "conditions": "read-out: Activity"}}, "note": "Activity calls are given as the source filed them. The calls are words filed in the database; no cut-off is given here."}
{"molecule": "Cc1cc(Nc2ccc(C(=O)/C=C/c3cccc(Br)n3)cc2)n2nc(SCc3nc4ccccc4[nH]3)nc2n1", "values": [{"measurement": "inhibition at 10 µM", "setting": "MGC-803 [1]", "result": 94.4, "unit": "%"}, {"measurement": "GI50", "setting": "EJ", "result": "> 10000", "unit": "nM"}, {"measurement": "viability at 5 µM", "setting": "MGC-803 [2]", "result": 73.8, "unit": "%"}, {"measurement": "viability at 10 µM", "setting": "MGC-803 [3]", "result": 45.3, "unit": "%"}, {"measurement": "Activity", "setting": "MGC-803 [4]", "result": "Active"}, {"measurement": "Activity", "setting": "SGC-7901 [5]", "result": 5, "unit": "%"}, {"measurement": "Activity", "setting": "SGC-7901 [6]", "result": 1.96, "unit": "%"}, {"measurement": "inhibition", "setting": "MGC-803 [7]", "result": "Active"}, {"measurement": "Activity", "setting": "MGC-803 [8]", "result": 1.75, "unit": "%"}, {"measurement": "Activity", "setting": "MGC-803 [9]", "result": "inactive"}, {"measurement": "Activity", "setting": "MGC-803 [10]", "result": "Active"}, {"measurement": "viability at 1.25 µM", "setting": "MGC-803 [11]", "result": 88.6, "unit": "%"}, {"measurement": "GI50", "setting": "HGC-27", "result": 640, "unit": "nM"}, {"measurement": "inhibition", "setting": "MGC-803 [12]", "result": "inactive"}, {"measurement": "Activity", "setting": "MGC-803 [13]", "result": 4.7, "unit": "%"}, {"measurement": "viability at 10 µM", "setting": "SGC-7901 [14]", "result": 23.9, "unit": "%"}, {"measurement": "inhibition", "setting": "MGC-803 [15]", "result": "inactive"}, {"measurement": "GI50", "setting": "BGC-823", "result": 640, "unit": "nM"}, {"measurement": "Activity", "setting": "MGC-803 [16]", "result": 15.4, "unit": "%"}, {"measurement": "Activity", "setting": "SGC-7901 [17]", "result": 2.25, "unit": "%"}, {"measurement": "inhibition", "setting": "MGC-803 [18]", "result": "Active"}, {"measurement": "Activity", "setting": "GES1", "result": "Non-Toxic"}, {"measurement": "inhibition", "setting": "SGC-7901 [19]", "result": "inactive"}, {"measurement": "Activity", "setting": "SGC-7901 [20]", "result": 16.7, "unit": "%"}, {"measurement": "Activity", "setting": "MGC-803 [21]", "result": 36.4, "unit": "%"}, {"measurement": "Activity", "setting": "SGC-7901 [22]", "result": 2.24, "unit": "%"}, {"measurement": "Activity", "setting": "MGC-803 [23]", "result": "Active"}, {"measurement": "Activity", "setting": "MGC-803 [24]", "result": 1.81, "unit": "%"}, {"measurement": "inhibition", "setting": "MGC-803 [25]", "result": "inactive"}, {"measurement": "Activity", "setting": "SGC-7901 [26]", "result": 1.37, "unit": "%"}, {"measurement": "Activity", "setting": "MGC-803 [27]", "result": 7.21, "unit": "%"}, {"measurement": "Activity", "setting": "MGC-803 [28]", "result": 7.11, "unit": "%"}, {"measurement": "Activity", "setting": "MGC-803 [29]", "result": 10.1, "unit": "%"}, {"measurement": "Activity", "setting": "MGC-803 [30]", "result": "Active"}, {"measurement": "Activity", "setting": "MGC-803 [31]", "result": "inactive"}, {"measurement": "Activity", "setting": "MGC-803 [32]", "result": 2.25, "unit": "%"}, {"measurement": "viability at 2.5 µM", "setting": "MGC-803 [33]", "result": 86.4, "unit": "%"}]}
